Paper PMC12329707, “Ancestral Sequence Reconstruction of the Ethylene-Forming Enzyme” (Biochemistry, 2025)

Legend:
PaIPNS = biological target: T1, PaIPNS (Pseudomonas aeruginosa, UniProt Q9HWJ0); experiment: anaerobic UV-visible difference spectroscopy (MLCT); assay type: binding; settings: Fe(II) 1 mM, dithionite 2 mM, 25 mM HEPES pH 7.5
T1 construct: gene PA4191; synthetic codon-optimised gene in pET28a, E. coli; N-terminal His6 tag removed by TEV; EDTA-treated apoprotein reconstituted with Fe(II)
T1 sequence (Q9HWJ0 1-334): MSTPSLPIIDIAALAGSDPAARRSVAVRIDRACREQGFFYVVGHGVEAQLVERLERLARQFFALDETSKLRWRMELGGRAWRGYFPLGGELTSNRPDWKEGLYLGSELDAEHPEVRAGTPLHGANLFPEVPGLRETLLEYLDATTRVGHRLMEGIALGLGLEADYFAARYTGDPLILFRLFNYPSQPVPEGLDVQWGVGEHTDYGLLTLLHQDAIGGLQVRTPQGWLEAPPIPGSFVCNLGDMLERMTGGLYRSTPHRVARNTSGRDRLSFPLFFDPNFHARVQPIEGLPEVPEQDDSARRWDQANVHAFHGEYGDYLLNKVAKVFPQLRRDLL

[1] = test system: T2, Anc357 (synthetic construct); experiment: as above; assay type: binding; settings: Fe(II)
T2 construct: pET28a, E. coli; N-terminal His6 tag removed by TEV; 37,413 Da expected after cleavage; monomer

Din11 = biological target: T3, Din11 (Arabidopsis thaliana, UniProt Q8H113); experiment: P5C formation, colorimetric assay; assay type: biochemical; settings: 2OG 6.67 mM, L-Arg 6.67 mM, Fe(II) 0.4 mM, ascorbate 0.8 mM, HEPES pH 7.5, room temperature
T3 construct: gene 2ODDC23.2; synthetic codon-optimised gene in pET28a, E. coli; N-terminal His6 tag, removed by TEV; Fe(II) added
T3 sequence (Q8H113 1-357): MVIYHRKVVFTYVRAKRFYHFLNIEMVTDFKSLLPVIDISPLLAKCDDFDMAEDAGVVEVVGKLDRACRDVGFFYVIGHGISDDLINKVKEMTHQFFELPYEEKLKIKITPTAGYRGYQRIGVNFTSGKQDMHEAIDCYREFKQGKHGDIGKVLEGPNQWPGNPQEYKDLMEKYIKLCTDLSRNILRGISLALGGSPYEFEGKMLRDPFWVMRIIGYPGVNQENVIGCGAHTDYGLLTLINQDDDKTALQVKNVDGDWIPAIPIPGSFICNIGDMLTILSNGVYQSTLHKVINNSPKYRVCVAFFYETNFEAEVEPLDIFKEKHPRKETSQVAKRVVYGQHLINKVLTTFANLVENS

Structure (SMILES): O=C(O)CCC(=O)C(=O)O [2OG]
- anaerobic UV-visible difference spectroscopy (MLCT) (PaIPNS): The PaIPNS spectra clearly demonstrated that PaIPNS binds 2OG
- anaerobic UV-visible difference spectroscopy (MLCT) [1]: consistent with 2OG binding (Figure S6)

Structure (SMILES): N=C(N)NCCC[C@H](N)C(=O)O [L-Arg]
- P5C formation, colorimetric assay (Din11): this enzyme hydroxylated L-Arg to produce P5C
